Key:
[1] = tested on: Swiss male mice; assay: Analgesic activity, phenylquinone test (Siegmund et al), oral administration in Swiss male mice; assay type: in vivo; settings: Mus musculus
Excerpt: (a) Analgesic activity.-Analgesic activity has been determined in Swiss male mice by orally administering the compounds according to the phenylquinone test, as described by Siegmund et al (Proc. Soc.Exp.Biol.Med., 95, 729, 1957). From the analgesia values obtained, the ED50 for each compound has been calculated.

[2] = Acute toxicity, oral administration in female and male Swiss mice (Reed-Muench method as modified by Pizzi); settings: mouse, in vivo
Excerpt: (b) Acute toxicity.-Acute toxicity has been determined in both female and male Swiss mice by oral administration according to the method by Reed-Muench as modified by Pizzi (Human Biology, 22(3), 151-190, 1950).

Structure (SMILES)	ED50 [1] [mg/kg]	LD50 [2] [mg/kg]
C[C@H](O)[C@@H](c1ccc2c(c1)OCO2)N1CCOCC1 (relative stereo) [Example 2, d,l-erythro-1-(3',4'-methylenedioxyphenyl)-1-morpholine-propane-2-ol]	25.7	1200
C[C@H](O)[C@@H](c1ccc2c(c1)OCO2)N1CCN(Cc2ccccc2)CC1 (relative stereo) [Example 3, d,l-erythro-1-(3',4'-methylenedioxyphenyl)-1-(4-benzyl-1-piperazinyl)propane-2-ol]	29.7	256
CCN(CC)[C@H](c1ccc2c(c1)OCO2)[C@H](C)O (relative stereo) [Example 4, d,l-erythro-1-(3',4'-methylenedioxyphenyl)-1-diethylamino-propane-2-ol]	107	317
C[C@H](O)[C@@H](c1ccc2c(c1)OCO2)N1CCCCC1 (relative stereo) [Example 5, d,l-erythro-1-(3',4'-methylenedioxyphenyl)-1-piperidinepropane-2-ol]	33.3	277
C[C@H](O)[C@@H](c1ccc2c(c1)OCO2)N1CCC(O)CC1 (relative stereo) [Example 6, d,l-erythro-1-(3',4'-methylenedioxyphenyl)-1-(4-hydroxypiperidine)-propane-2-ol]	109	1060
C[C@H](O)[C@@H](c1ccc2c(c1)OCO2)N1CCCC1 (relative stereo) [Example 7, d,l-erythro-1-(3',4'-methylenedioxyphenyl)-1-pyrrolidinopropane-2-ol]	140	599
C[C@H](O)[C@@H](c1ccc2c(c1)OCO2)N1CCCCCC1 (relative stereo) [Example 8, d,l-erythro-1-(3',4'-methylenedioxyphenyl)-1-homopiperidino-propane-2-ol]	45.5	233
C[C@H](O)[C@H](NCc1ccccc1)c1ccc2c(c1)OCO2 (relative stereo) [Example 9, d,l-erythro-1-(3',4'-methylenedioxyphenyl)-1-benzylaminopropane-2-ol]	28.8	252
C[C@H](O)[C@@H](c1ccc2c(c1)OCO2)N(C)Cc1ccccc1 (relative stereo) [Example 10, d,l-erythro-1-(3',4'-methylenedioxyphenyl)-1-(N-methylbenzylamino)-propane-2-ol]	33.8	360
C[C@H](O)[C@@H](c1ccc2c(c1)OCO2)N(C)C1CCCCC1 (relative stereo) [Example 11, d,l-erythro-1-(3',4'-methylenedioxyphenyl)-1-(N-methylcyclohexylamino)-propane-2-ol]	29.8	167
C[C@H](O)[C@H](NC1CC1)c1ccc2c(c1)OCO2 (relative stereo) [Example 12, d,l-erythro-1-(3',4'-methylenedioxyphenyl)-1-cyclopropylaminopropane-2-ol]	62.3	780
C[C@H](O)[C@H](NC1CCCCC1)c1ccc2c(c1)OCO2 (relative stereo) [Example 13, d,l-erythro-1-(3',4'-methylenedioxyphenyl)-1-cyclohexylaminopropane-2-ol]	31.7	245
CC(=O)Oc1ccccc1C(=O)O [Acetylsalicylic acid, reference compound]	72	–
Cc1c(N(C)C)c(=O)n(-c2ccccc2)n1C [Aminophenazone, reference compound]	23.4	–
COc1ccc2c3c1O[C@H]1[C@@H](O)C=C[C@H]4[C@@H](C2)N(C)CC[C@@]341 [Codeine, reference compound]	1.97	–

— patent publication US4535159A, “Process for producing 1-position amino-derivatives of 1-(3',4'-methylenedioxyphenyl)propane-2-ol” (Ferrer Internacional, S.A., priority 1981, dated 1985)
